Measured values from US10039729B2, “Use of kukoamine A and kukoamine B” (Tianjin Chase Sun Pharmaceutical Co., Ltd., priority 2010, dated 2018).

Key:
[1] = test system: mice challenged by heat-killed Escherichia coli; experiment: Protection on mice challenged by lethal dose of heat-killed Escherichia coli; type: in vivo, Kunming mice
Procedure: Preparation of heat-killed Escherichia coli (E. coli) ATCC 35218: Bacteria culture was performed according to Clinical Laboratory Procedures. Single bacterial colony of E. coli from LB agar plates were picked and transferred into 10 mL sterile liquid of LB broth using a sterile inoculating loop, and cultivated at 37° C. in a shaker (250 rpm). After medium become turbid, these culture medium were then transferred to 2000 mL of fresh LB medium and cultivated at 37° C. in a shaker (250 rpm) for 12 h. The suspension was collected, transferred into 1000 ml centrifuge tube, and centrifuged at 5000 rpm for 15 min. The supernatant was discarded. The bacteria were collected, washed and resuspended into sterile saline, and then centrifuged again under the same condition. Above-mentioned process was repeated thrice. The bacteria pellet was resuspended with a pipet in 50 ml sterile saline, transferred into 100 ml saline bottle, and boiled in electric furnace for 30 min. Then the suspension of heat-killed Escherichia coli was obtained. The suspension of E. coli was diluted by 100 fold, and measured OD value at 600 nm on nucleic acid protein analyzer. Conversion was made according to the regression equation of OD value and concentration, and the suspension was diluted according to the conversion result. Then the operating fluids for mice injection were obtained.
Observation of CL-4b protection on mice challenged by heat-killed Escherichia coli: A total of […] Kunming mice (18˜20 g), half male and half female, were divided into three groups randomly: CL-4b control group, heat-killed E. coli group and CL-4b treatment group. Each group has 10 mice, half male and half female. CL-4b control group was injected with CL-4b (60 mg/kg) and sterile saline; heat-killed E. coli group was injected with heat-killed Escherichia coli (1.0×10^10 CFU/ml) and sterile saline; CL-4b treatment group was injected with CL-4 ([…]) at 10 min after heat-killed E. coli injection. The injection volume of each solution was 200 μl per 20 g body weight via tail vein. […]
(1) Single dose experiment: Experiment 1: A total of 40 Kunming mice (18-20 g), half male and half female, were divided into two groups randomly, heat-killed E. coli control group and KB (30 mg/kg) treatment group; each group has 20 mice; after animal weighing, heat-killed E. coli group was injected with heat-killed Escherichia coli (200 μl per 20 g body weight) and sterile saline (200 μl per 20 g body weight); KB treatment group was injected with KB (200 μl per 20 g body weight) at 5 min after heat-killed E. coli was injected; the injection doses of heat-killed E. coli were 1.0×10^11 CFU/kg, and injection doses of KB were 30 mg/kg. […]

[2] = test system: murine peritoneal macrophages; experiment: mRNA expression of TNF-α and IL-6 in murine peritoneal macrophages stimulated by LPS and CpG DNA; type: cell-based; conditions: 100, 200 μM, dose-dependent
Text: 16.1 Methods: Influence of KB on the mRNA expression of TNF-α and IL-6 in murine peritoneal macrophages stimulated by LPS and CpG DNA was observed. Methods were the same as embodiment 15.

RAW264.7 cells = experiment: Western blot of IκB-α and p38 phosphorylation in RAW264.7 cells; type: cell-based, murine
Procedure: Extraction of cytoplasmic protein: RAW264.7 cells were diluted to 1×10^6/ml in DMEM supplemented with 10% (v/v) NCS; 5 ml of the above suspension was transferred into cell culture bottles and cultured at 37° C. in a 5% CO2 humidified incubator for 4 h; a preliminary experiment was first performed, in which RAW264.7 cells were stimulated by LPS (100 ng/ml), CpG DNA (10 μg/ml), TNF-α (50 ng/ml) or IL-1β (50 ng/ml) for 15, 30, 45 and 60 min respectively; for the purpose of formal experiment a medium group, a KB control group, stimulation group (LPS, CpG DNA, TNF-α or IL-1β) and a KB treatment group (LPS+KB group, CpG DNA+KB group, TNF-α+KB group and IL-1β+KB group) were established; no reagent was added in medium group; KB control group was only added with KB (200 μM); stimulation group was added with LPS (100 ng/ml), CpG DNA (10 μg/ml), TNF-α (50 ng/ml) or IL-1β (50 ng/ml); KB treatment group was added with KB (100, 200 μM) in the meantime of adding LPS, CpG DNA, TNF-α or IL-1β; the duration time of cell culture was based on the preliminary experiment (30 min); cells were washed with PBS and centrifuged to collect cells; supernatant was sucked and discarded; the cell pellet was collected for further experiment; each 20 μl cell pellet was added with 200 μl cytoplasm protein extraction reagents supplemented with PMSF, shook vigorously for 5 seconds to completely suspend and disperse the cell pellet, chilled for 10 to 15 min in an ice bath, centrifuged at 12,000 g at 4° C. for 5 min; the supernatant was instantly transferred into a precooled plastic tube, which was the cytoplasmic protein obtained by extraction;
(3) Sample preparation: Protein sample was mixed with 5× concentrated loading buffer in proportion of 4:1, and denatured at 100° C. for 5 min;
(5) Loading: Sample loading volume was adjusted according to protein concentration to ensure 20 μg protein content of each sample; samples were loaded with microsyringe (5 μl protein molecular weight marker were loaded); […]

[3] = single dose KB 60 mg/kg, E. coli 1.0×10^11 CFU/kg
[4] = KB 100 and 200 μM, 30 min, western blot

NCCCN(CCCCNCCCNC(=O)CCc1ccc(O)c(O)c1)C(=O)CCc1ccc(O)c(O)c1 [KB, Kukoamine B]
survival rates, multiple dose ([1]; KB 1.25, 2.5 and 5 mg/kg every 8 h for 3 days): improve survival rates | mortality rate in 7 days, single dose ([1]; KB 15, 30 and 60 mg/kg 5 min after heat-killed E. coli): decreased with the increasing doses of KB | protective effect, KB given after 2 h (4, 6 and 8 h) [1, 3]: no longer has a significant protective effect | survival rate, KB given 2 h after heat-killed E. coli [1, 3]: still can increase the survival rate | mRNA expressions of TNF-α and IL-6 up-regulated by CpG DNA [2]: significantly inhibit the mRNA expressions | mRNA expressions of TNF-α and IL-6 up-regulated by LPS [2]: significantly inhibit the mRNA expressions | expression of IκB-α and p-IκB-α, KB alone (RAW264.7 cells; KB 200 μM alone vs medium group): had no influence | degradation of IκB-α and up-regulated expression of p-IκB-α induced by LPS and CpG DNA (RAW264.7 cells; [4]): both were significantly inhibited | p-p38 expression induced by LPS and CpG DNA (RAW264.7 cells; [4]): significantly inhibited
